From ChEMBL document CHEMBL5375979, “Chemical, Biochemical, Cellular, and Physiological Characterization of Leucettinib-21, a Down Syndrome and Alzheimer's Disease Drug Candidate” (J Med Chem, 2023)

Assays:
[1] = target: Cyclin-dependent kinase-like 1 (Homo sapiens, UniProt Q00532)
Description: Inhibition of human CDKL1 assessed as remaining activity by eurofins-cerep kinase profiler analysis

[2] = target: T1, Dual specificity protein kinase CLK4 (Homo sapiens, UniProt Q9HAZ1)
[3] = target: Homeodomain-interacting protein kinase 2 (Homo sapiens, UniProt Q9H2X6)
Description: Inhibition of human HIPK2 assessed as remaining activity by eurofins-cerep kinase profiler analysis

[4] = target: Dual specificity tyrosine-phosphorylation-regulated kinase 2 (Homo sapiens) (UniProt Q92630); details: dose 10.0 µM
[5] = target: Serine/threonine-protein kinase TAO2 (Homo sapiens, UniProt Q9UL54)
Description: Inhibition of human TAO2 assessed as remaining activity by eurofins-cerep kinase profiler analysis

[6] = target: cGMP-dependent protein kinase 2 (Homo sapiens, UniProt Q13237)
Description: Inhibition of human PRKG2 assessed as remaining activity by eurofins-cerep kinase profiler analysis

[7] = target: T2, Dual specificity protein kinase CLK3 (Homo sapiens, UniProt P49761)
Description: Inhibition of human CLK3 assessed as remaining activity by eurofins-cerep kinase profiler analysis

[8] = target: Calcium/calmodulin-dependent protein kinase kinase 2 (Homo sapiens) (UniProt Q96RR4); details: dose 10.0 µM
[9] = target: T3, Dual specificity tyrosine-phosphorylation-regulated kinase 3 (Homo sapiens, UniProt O43781)
T3 sequence (O43781 whole entry): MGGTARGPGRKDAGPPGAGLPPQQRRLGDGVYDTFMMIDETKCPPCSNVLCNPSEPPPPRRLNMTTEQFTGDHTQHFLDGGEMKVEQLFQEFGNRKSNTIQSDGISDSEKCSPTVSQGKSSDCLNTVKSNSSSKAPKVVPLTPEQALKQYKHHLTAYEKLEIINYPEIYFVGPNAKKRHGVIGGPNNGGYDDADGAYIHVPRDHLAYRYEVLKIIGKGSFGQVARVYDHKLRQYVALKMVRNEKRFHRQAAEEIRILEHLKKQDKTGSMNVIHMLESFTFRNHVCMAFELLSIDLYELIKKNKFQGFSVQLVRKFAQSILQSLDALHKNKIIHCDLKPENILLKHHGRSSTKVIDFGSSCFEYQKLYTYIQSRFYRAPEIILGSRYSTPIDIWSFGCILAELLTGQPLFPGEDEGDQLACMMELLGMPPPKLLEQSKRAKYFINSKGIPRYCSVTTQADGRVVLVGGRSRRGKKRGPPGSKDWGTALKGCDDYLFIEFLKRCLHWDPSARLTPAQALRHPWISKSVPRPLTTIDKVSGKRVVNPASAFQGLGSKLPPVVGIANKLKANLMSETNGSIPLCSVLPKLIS
Description: Inhibition of human DYRK3 assessed as remaining activity by eurofins-cerep kinase profiler analysis

[10] = target: T2, Dual specificity protein kinase CLK3; details: dose 10.0 µM
[11] = target: Transcription initiation factor TFIID subunit 1-like (Homo sapiens, UniProt Q8IZX4)
Description: Inhibition of human TAF1L assessed as remaining activity by eurofins-cerep kinase profiler analysis

[12] = target: Glycogen synthase kinase-3 beta (Homo sapiens) (UniProt P49841); details: dose 10.0 µM
[13] = target: Cyclin-dependent kinase-like 4 (Homo sapiens, UniProt Q5MAI5)
Description: Inhibition of human CDKL4 assessed as remaining activity by eurofins-cerep kinase profiler analysis

Tribbles homolog 2 = Tribbles homolog 2 (Homo sapiens, UniProt Q92519)
Description: Inhibition of human TRB2 assessed as remaining activity by eurofins-cerep kinase profiler analysis

[14] = target: Homeodomain-interacting protein kinase 1 (Homo sapiens, UniProt Q86Z02)
Description: Inhibition of human HIPK1 assessed as remaining activity by eurofins-cerep kinase profiler analysis

[15] = target: T4, Dual specificity protein kinase CLK1 (Homo sapiens, UniProt P49759)
[16] = target: T5, Dual specificity tyrosine-phosphorylation-regulated kinase 2 (Homo sapiens, UniProt Q92630)
T5 sequence (Q92630 whole entry): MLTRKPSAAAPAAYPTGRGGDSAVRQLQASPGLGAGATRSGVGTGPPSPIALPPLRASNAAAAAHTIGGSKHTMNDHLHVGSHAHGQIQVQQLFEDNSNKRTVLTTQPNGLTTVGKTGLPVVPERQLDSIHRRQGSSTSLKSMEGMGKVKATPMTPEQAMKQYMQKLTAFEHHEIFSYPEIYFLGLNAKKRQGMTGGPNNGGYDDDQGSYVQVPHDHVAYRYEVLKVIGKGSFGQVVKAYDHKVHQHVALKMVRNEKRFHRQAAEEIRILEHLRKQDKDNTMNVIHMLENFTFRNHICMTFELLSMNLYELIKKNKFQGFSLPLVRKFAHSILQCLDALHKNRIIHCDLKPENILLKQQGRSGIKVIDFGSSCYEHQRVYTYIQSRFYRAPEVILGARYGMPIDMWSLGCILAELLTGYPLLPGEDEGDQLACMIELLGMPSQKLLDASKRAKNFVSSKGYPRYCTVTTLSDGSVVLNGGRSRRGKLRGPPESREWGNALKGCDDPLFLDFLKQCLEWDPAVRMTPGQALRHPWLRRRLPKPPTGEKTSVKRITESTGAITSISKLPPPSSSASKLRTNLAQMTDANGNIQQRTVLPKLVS
Description: Inhibition of human DYRK2 assessed as remaining activity by eurofins-cerep kinase profiler analysis

[17] = target: Death-associated protein kinase 3 (Homo sapiens) (UniProt O43293); details: dose 10.0 µM
[18] = target: T4, Dual specificity protein kinase CLK1; remark: listed apart in the source
[19] = target: Homeodomain-interacting protein kinase 3 (Homo sapiens, UniProt Q9H422)
Description: Inhibition of human HIPK3 assessed as remaining activity by eurofins-cerep kinase profiler analysis

[20] = target: Aurora kinase A (Homo sapiens) (UniProt O14965); details: dose 10.0 µM
[21] = target: Cyclin-dependent kinase-like 3 (Homo sapiens, UniProt Q8IVW4)
Description: Inhibition of human CDKL3 assessed as remaining activity by eurofins-cerep kinase profiler analysis

[22] = target: Cyclin-G-associated kinase (Homo sapiens) (UniProt O14976); details: dose 10.0 µM
[23] = target: Myotonin-protein kinase (Homo sapiens) (UniProt Q09013); details: dose 10.0 µM
[24] = target: Dual specificity protein kinase CLK2 (Homo sapiens, UniProt P49760)
Description: Inhibition of human CLK2 assessed as remaining activity by eurofins-cerep kinase profiler analysis

[25] = target: T1, Dual specificity protein kinase CLK4; remark: listed apart in the source
[26] = target: Mitogen-activated protein kinase 15 (Homo sapiens) (UniProt Q8TD08); details: dose 10.0 µM
[27] = target: Serine/threonine-protein kinase PIM (Homo sapiens) (UniProt P11309+Q9P1W9+Q86V86); details: dose 10.0 µM
[28] = target: Maternal embryonic leucine zipper kinase (Homo sapiens) (UniProt Q14680); details: dose 10.0 µM
[29] = target: AP2-associated protein kinase 1 (Homo sapiens, UniProt Q2M2I8)
Description: Inhibition of human AAK1 assessed as remaining activity by eurofins-cerep kinase profiler analysis

T1 sequence (Q9HAZ1 whole entry): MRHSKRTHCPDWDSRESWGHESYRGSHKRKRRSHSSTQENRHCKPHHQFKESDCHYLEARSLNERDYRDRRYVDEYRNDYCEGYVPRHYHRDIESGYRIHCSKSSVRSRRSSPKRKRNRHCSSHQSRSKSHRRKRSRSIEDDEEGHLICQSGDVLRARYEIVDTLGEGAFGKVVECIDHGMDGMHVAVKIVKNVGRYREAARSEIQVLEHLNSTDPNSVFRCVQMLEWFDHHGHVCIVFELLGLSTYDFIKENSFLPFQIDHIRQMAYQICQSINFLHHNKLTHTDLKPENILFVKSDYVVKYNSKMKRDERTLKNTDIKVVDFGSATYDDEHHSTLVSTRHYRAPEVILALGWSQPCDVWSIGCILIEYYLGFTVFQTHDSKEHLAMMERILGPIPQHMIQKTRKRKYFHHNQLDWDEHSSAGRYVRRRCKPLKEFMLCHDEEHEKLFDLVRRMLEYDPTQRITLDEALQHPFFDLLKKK
T4 sequence (P49759 whole entry): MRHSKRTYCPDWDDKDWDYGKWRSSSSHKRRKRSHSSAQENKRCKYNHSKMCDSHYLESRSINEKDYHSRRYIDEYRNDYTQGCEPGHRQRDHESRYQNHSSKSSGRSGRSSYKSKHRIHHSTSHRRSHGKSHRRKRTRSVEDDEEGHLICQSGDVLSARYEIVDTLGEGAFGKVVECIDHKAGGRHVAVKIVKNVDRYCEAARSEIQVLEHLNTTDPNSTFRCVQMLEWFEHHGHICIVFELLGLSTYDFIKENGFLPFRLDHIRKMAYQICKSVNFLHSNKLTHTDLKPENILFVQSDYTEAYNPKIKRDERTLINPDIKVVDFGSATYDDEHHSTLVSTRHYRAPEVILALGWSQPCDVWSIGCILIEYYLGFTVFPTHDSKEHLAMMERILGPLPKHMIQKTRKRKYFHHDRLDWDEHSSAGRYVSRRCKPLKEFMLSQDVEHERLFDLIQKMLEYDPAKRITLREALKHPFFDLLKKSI
Chain of Death-associated protein kinase 3 (Homo sapiens) (O43293 whole entry, looked up): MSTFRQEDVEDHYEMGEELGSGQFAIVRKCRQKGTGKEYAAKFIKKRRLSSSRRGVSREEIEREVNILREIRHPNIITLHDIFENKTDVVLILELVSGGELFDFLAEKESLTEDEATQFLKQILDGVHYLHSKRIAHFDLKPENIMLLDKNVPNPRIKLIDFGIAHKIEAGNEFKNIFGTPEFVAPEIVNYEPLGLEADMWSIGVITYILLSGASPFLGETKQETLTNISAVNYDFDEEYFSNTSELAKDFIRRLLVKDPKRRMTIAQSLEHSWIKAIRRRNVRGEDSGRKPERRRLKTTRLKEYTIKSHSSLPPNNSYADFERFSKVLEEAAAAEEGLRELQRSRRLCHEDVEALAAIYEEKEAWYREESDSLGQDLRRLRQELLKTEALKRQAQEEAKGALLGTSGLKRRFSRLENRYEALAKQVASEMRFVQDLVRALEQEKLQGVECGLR
Chain of Cyclin-dependent kinase-like 3 (Q8IVW4 whole entry): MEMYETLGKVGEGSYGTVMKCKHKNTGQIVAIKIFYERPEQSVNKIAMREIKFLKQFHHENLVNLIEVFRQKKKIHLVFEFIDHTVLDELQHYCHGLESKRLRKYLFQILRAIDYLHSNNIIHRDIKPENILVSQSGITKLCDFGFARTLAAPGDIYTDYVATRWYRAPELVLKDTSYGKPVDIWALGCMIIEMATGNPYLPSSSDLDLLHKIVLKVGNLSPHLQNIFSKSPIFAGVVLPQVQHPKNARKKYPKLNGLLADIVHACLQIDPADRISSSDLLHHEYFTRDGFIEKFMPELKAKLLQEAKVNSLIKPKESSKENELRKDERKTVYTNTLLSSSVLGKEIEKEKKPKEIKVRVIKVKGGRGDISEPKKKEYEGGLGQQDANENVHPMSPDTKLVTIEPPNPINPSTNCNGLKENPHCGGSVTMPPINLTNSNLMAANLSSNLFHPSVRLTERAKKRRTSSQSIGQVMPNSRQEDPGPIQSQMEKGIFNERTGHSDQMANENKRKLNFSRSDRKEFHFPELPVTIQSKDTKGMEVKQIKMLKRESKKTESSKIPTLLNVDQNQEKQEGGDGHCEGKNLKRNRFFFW
Chain of Serine/threonine-protein kinase PIM (Homo sapiens) (P11309 whole entry, looked up): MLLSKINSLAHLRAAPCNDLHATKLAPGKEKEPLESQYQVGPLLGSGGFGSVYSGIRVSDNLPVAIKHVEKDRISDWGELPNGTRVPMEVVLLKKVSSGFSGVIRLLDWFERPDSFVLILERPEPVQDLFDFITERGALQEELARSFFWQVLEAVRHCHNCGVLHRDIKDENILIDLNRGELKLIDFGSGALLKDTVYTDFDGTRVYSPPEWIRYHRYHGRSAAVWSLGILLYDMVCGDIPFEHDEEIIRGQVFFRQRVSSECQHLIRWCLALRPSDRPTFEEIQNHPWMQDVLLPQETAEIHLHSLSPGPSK
Chain of Serine/threonine-protein kinase PIM (Homo sapiens) (Q9P1W9 whole entry, looked up): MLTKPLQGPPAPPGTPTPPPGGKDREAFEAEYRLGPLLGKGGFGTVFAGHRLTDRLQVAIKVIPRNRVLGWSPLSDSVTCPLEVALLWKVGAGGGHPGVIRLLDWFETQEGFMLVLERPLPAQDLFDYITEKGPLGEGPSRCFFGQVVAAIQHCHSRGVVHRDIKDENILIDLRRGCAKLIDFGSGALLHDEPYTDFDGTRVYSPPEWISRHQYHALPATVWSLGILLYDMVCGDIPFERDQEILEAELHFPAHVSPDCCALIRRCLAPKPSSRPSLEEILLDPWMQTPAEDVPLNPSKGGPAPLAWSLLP
Chain of Cyclin-G-associated kinase (Homo sapiens) (O14976 whole entry): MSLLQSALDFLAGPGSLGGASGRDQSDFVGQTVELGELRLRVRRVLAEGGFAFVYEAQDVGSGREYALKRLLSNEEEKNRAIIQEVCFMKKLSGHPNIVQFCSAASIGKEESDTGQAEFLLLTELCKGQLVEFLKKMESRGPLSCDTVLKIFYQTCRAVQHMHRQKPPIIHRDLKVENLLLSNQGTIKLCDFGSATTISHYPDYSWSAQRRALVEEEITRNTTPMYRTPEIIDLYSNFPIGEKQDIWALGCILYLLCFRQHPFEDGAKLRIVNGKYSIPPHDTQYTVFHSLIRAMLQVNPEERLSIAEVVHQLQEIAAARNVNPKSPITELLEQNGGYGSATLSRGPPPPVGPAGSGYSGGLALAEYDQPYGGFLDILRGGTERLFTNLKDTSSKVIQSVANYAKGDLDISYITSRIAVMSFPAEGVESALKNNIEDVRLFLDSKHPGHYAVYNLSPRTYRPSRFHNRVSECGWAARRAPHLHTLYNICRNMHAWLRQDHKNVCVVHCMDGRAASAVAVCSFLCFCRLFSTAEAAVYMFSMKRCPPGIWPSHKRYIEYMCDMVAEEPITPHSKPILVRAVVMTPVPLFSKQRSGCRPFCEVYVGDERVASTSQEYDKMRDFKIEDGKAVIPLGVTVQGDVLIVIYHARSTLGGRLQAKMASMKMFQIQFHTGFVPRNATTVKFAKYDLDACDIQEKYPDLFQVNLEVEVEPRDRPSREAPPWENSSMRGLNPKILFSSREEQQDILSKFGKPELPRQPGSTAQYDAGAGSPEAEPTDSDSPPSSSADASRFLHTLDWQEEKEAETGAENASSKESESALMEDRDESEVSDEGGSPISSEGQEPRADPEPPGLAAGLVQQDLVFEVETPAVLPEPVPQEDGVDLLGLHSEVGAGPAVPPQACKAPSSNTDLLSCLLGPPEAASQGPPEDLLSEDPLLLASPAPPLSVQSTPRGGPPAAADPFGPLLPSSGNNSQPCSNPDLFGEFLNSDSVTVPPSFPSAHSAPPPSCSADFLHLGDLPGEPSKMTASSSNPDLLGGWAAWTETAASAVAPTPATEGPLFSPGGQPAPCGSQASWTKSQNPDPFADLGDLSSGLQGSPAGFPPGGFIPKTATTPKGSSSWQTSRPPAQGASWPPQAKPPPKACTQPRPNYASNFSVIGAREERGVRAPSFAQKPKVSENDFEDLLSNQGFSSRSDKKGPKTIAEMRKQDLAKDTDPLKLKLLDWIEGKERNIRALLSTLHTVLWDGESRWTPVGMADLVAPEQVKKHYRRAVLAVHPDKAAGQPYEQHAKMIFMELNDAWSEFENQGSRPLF
Chain of Aurora kinase A (Homo sapiens) (O14965 whole entry): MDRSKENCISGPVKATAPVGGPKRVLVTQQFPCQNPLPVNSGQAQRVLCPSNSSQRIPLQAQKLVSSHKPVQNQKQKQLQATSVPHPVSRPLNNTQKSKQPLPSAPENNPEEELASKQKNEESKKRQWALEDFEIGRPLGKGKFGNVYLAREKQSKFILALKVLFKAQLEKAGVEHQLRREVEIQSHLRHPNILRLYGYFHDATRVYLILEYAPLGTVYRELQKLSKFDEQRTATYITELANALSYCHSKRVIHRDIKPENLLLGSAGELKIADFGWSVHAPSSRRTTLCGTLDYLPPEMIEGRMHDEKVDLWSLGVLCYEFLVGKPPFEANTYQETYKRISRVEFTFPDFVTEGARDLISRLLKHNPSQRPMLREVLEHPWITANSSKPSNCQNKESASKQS

Work on `COC[C@@H](CC(C)C)NC1=N/C(=C\c2ccc3scnc3c2)C(=O)N1` yielded an IC50 [1] of over 1000 nM, an IC50 [2] of over 10000 nM and an IC50 [3] of over 10000 nM. For the same compound, the ΔTm [4] was 1.7 °C, the IC50 [5] was over 10000 nM and the IC50 [6] was over 10000 nM. The IC50 [7] was over 1000 nM, the ΔTm [8] was -1.2 °C and the IC50 [9] was over 1000 nM. The ΔTm [10] was 0.3 °C, the IC50 [11] was over 1000 nM and the ΔTm [12] was 2.1 °C. The IC50 [13] was over 1000 nM, the IC50 (Tribbles homolog 2) was over 1000 nM and the IC50 [14] was over 10000 nM. For the same compound, the IC50 [15] was over 10000 nM, the IC50 [16] was over 1000 nM and the ΔTm [17] was 1.2 °C. The IC50 [18] was over 1000 nM, the IC50 [19] was over 10000 nM and the ΔTm [20] was 1.4 °C. It also gave an IC50 [21] of over 1000 nM, a ΔTm [22] of 3.5 °C and a ΔTm [23] of 1.1 °C. For the same compound, the IC50 [24] was over 1000 nM, the IC50 [25] was over 1000 nM and the ΔTm [26] was 4.7 °C. The ΔTm [27] was 4.5 °C, the ΔTm [28] was 0.4 °C and the IC50 [29] was “Not Active”.
